pKi: −log10 of the molar value.
Molecular target: T1, human factor Xa (Homo sapiens, UniProt P00742)
T1 construct: 25 μl human factor Xa (Enzyme Research Laboratories, Inc; South Bend, Ind.); purchased Enzyme Research Laboratories, Inc; South Bend, Ind
Test: Factor Xa assay (chromogenic, purified enzyme)
Assay type: biochemical
Details: inhibition constant for factor Xa; chromogenic substrate S-2765 140 μM, enzyme 0.5 nM, 25° C., pH 7.8; Ki=IC50/{1+(substrate concentration/Km)}; read-out: Ki(FXa)
Method in brief: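 Human factor Xa (0.5 nM) pre-incubated 10 min with compound in TBS-PEG/DMSO, then S-2765 (140 μM) added; initial hydrolysis rate read at 405 nm, 25°C. IC50 by linear regression of relative rate vs log concentration; Ki = IC50/(1+[S]/Km).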

T1 sequence (P00742 235-488 limits assumed): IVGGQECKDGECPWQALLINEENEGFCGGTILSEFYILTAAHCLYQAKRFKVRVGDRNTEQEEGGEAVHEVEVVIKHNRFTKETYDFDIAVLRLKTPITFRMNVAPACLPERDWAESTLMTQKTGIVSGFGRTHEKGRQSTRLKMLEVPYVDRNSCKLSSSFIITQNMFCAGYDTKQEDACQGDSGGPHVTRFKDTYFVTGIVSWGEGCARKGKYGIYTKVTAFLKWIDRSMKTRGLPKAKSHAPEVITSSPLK
T1 sequence (P00742 41-179 partner limits assumed): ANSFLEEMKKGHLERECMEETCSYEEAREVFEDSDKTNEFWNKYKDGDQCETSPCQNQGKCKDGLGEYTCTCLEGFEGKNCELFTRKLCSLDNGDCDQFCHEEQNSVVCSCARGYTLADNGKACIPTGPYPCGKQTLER

Compound | pKi
CC(C)N1CCC(NC(=O)c2cc(C(=O)N3CCC(F)(F)CC3)nn2Cc2cc(-c3ccc(Cl)s3)on2)CC1 [Example 71, 2-[5-(5-Chloro-thiophen-2-yl)-isoxazol-3-ylmethyl]-5-(4,4-difluoro-piperidine-1-carbonyl)-2H-pyrazole-3-carboxylic acid (1-isopropyl-piperidin-4-yl)-amide] | 6.74
CC(C)N1CCC(NC(=O)c2cc(C(=O)N3CCCC3C(F)(F)F)nn2Cc2cc(-c3ccc(Cl)s3)on2)CC1 (stereo not drawn) [Example 43, 2-[5-(5-Chloro-thiophen-2-yl)-isoxazol-3-ylmethyl]-5-(2-trifluoromethyl-pyrrolidine-1-carbonyl)-2H-pyrazole-3-carboxylic acid (1-isopropyl-piperidin-4-yl)-amide] | 7.14
CC(C)N1CCC(NC(=O)c2cc(C(=O)NCCN3CCOCC3)nn2Cc2cc(-c3ccc(Cl)s3)on2)CC1 [Example 70, 1-[5-(5-Chloro-thiophen-2-yl)-isoxazol-3-ylmethyl]-1H-pyrazole-3,5-dicarboxylic acid 5-[(1-isopropyl-piperidin-4-yl)-amide] 3-[(2-morpholin-4-yl-ethyl)-amide]] | 6.74
CC(C)N1CCC(NC(=O)c2cc(C(=O)NC#N)nn2Cc2cc(-c3ccc(Cl)s3)on2)CC1 [Example 49, 2-[5-(5-Chloro-thiophen-2-yl)-isoxazol-3-ylmethyl]-5-(cyanamide-1-carbonyl)-2H-pyrazole-3-carboxylic acid (1-isopropyl-piperidin-4-yl)-amide] | 7.40

Continued, values first:

pKi | Compound
6.97 | CC(C)N1CCC(NC(=O)c2cc(C(=O)N3CCSCC3)nn2Cc2cc(-c3ccc(Cl)s3)on2)CC1 [Example 34, 2-[5-(5-Chloro-thiophen-2-yl)-isoxazol-3-ylmethyl]-5-(thiomorpholine-4-carbonyl)-2H-pyrazole-3-carboxylic acid (1-isopropyl-piperidin-4-yl)-amide]
7.09 | CC(C)N1CCC(NC(=O)c2cc(C(=O)OCCO)nn2Cc2cc(-c3ccc(Cl)s3)on2)CC1 [Example 110, 1-[5-(5-Chloro-thiophen-2-yl)-isoxazol-3-ylmethyl]-5-(1-isopropyl-piperidin-4-ylcarbamoyl)-1H-pyrazole-3-carboxylic acid 2-hydroxy-ethyl ester]
6.31 | CC(C)N1CCC(NC(=O)c2cc(-c3ccc(Cl)s3)n(Cc3cc(-c4ccc(Cl)s4)on3)n2)CC1 [Example 6, 5-(5-Chloro-thiophen-2-yl)-1-[5-(5-chloro-thiophen-2-yl)-isoxazol-3-ylmethyl]-1H-pyrazole-3-carboxylic acid (1-isopropyl-piperidin-4-yl)-amide]
7.04 | CC(C)N1CCC(NC(=O)c2cc(C(=O)N3CCOC3=O)nn2Cc2cc(-c3ccc(Cl)s3)on2)CC1 [Example 72, 2-[5-(5-Chloro-thiophen-2-yl)-isoxazol-3-ylmethyl]-5-(2-oxo-oxazolidine-3-carbonyl)-2H-pyrazole-3-carboxylic acid (1-isopropyl-piperidin-4-yl)-amide]
7.38 | CC(C)N1CCC(NC(=O)c2cc(-c3ccco3)n(Cc3cc(-c4ccc(Cl)s4)on3)n2)CC1 [Example 84, 1-[5-(5-Chloro-thiophen-2-yl)-isoxazol-3-ylmethyl]-5-furan-2-yl-1H-pyrazole-3-carboxylic acid (1-isopropyl-piperidin-4-yl)-amide]
